According to ChEMBL document CHEMBL1201862, “PubChem BioAssay data set” (2004):
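These data come from cells grown in 96-well plates and exposed to compound for 48 hours at five concentrations. GI50 is the concentration that inhibits growth by half.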 The source made the active and inactive calls. Cut-off read from the data, not from the text of the source: active = GI50 up to about 1.1 µM and inactive = higher.

Experiments:
Experiment in all cases: NCI tumour cell line growth inhibition, 48 h
NCI-H522 = test system: NCI-H522
MOLT-4 = test system: MOLT-4
OVCAR-5 = test system: OVCAR-5
RXF 393 = test system: RXF 393
OVCAR-8 = test system: OVCAR-8
SF-295 = test system: SF-295
HT-29 = test system: HT-29
K562 = test system: K562
SK-MEL-5 = test system: SK-MEL-5
OVCAR-4 = test system: OVCAR-4
CCRF-CEM = test system: CCRF-CEM
NCI-H226 = test system: NCI-H226
SW-620 = test system: SW-620
786-0 = test system: 786-0
OVCAR-3 = test system: OVCAR-3
IGROV-1 = test system: IGROV-1
Malme-3M = test system: Malme-3M
SF-539 = test system: SF-539
SK-MEL-2 = test system: SK-MEL-2

| SMILES | GI50 (NCI-H522) | GI50 (MOLT-4) | GI50 (OVCAR-5) | GI50 (RXF 393) | GI50 (OVCAR-8) | GI50 (SF-295) | GI50 (HT-29) | GI50 (K562) | GI50 (SK-MEL-5) | GI50 (OVCAR-4) | GI50 (CCRF-CEM) | GI50 (NCI-H226) | GI50 (SW-620) | GI50 (786-0) | GI50 (OVCAR-3) | GI50 (IGROV-1) | GI50 (Malme-3M) | GI50 (SF-539) | GI50 (SK-MEL-2) |
| --- | --- | --- | --- | --- | --- | --- | --- | --- | --- | --- | --- | --- | --- | --- | --- | --- | --- | --- | --- |
| CC(=O)NNc1nc(C)c(C(/C=C/c2ccc(Cl)cc2)=N\N=C(N)N)s1 | > 100 µM (inactive) | > 100 µM (inactive) | > 100 µM (inactive) | > 100 µM (inactive) | > 100 µM (inactive) | > 100 µM (inactive) | > 100 µM (inactive) | > 100 µM (inactive) | > 100 µM (inactive) | > 100 µM (inactive) | > 100 µM (inactive) | > 100 µM (inactive) | > 100 µM (inactive) | > 100 µM (inactive) | > 100 µM (inactive) | > 100 µM (inactive) | > 100 µM (inactive) | > 100 µM (inactive) |  |
| CC#CC(=O)Nc1ccccc1CC(c1c[nH]c2ccccc12)c1c[nH]c2ccccc12 | > 10 µM (inactive) | 5.68 µM (inactive) |  | 7.13 µM (inactive) | 19.1 µM (inactive) | 20.3 µM (inactive) | 16.2 µM (inactive) | 16.1 µM (inactive) | 14.2 µM (inactive) |  | 11.3 µM (inactive) | 15.5 µM (inactive) | 16.2 µM (inactive) | 18.3 µM (inactive) | 18.9 µM (inactive) | 16.4 µM (inactive) | 16.6 µM (inactive) | 20.4 µM (inactive) | 18.2 µM (inactive) |
| C[C@]12CC[C@@H]3c4cc(I)c(O)cc4CC[C@H]3[C@@H]1CC[C@@H]2O | 3.72 µM (inactive) | 5.42 µM (inactive) | 12.7 µM (inactive) | 6.07 µM (inactive) | 6.52 µM (inactive) | 3.48 µM (inactive) | 17.3 µM (inactive) | 3.52 µM (inactive) | 3.18 µM (inactive) | 16.5 µM (inactive) | 3.15 µM (inactive) | 15.5 µM (inactive) | 3.58 µM (inactive) | 5.06 µM (inactive) | 3.43 µM (inactive) | 5.93 µM (inactive) | 9.89 µM (inactive) |  | 3.02 µM (inactive) |
| Clc1ccc(CCn2cncn2)c(Cl)c1 | > 100 µM (inactive) | > 100 µM (inactive) | > 100 µM (inactive) |  | > 100 µM (inactive) | > 100 µM (inactive) | > 100 µM (inactive) | > 100 µM (inactive) | > 100 µM (inactive) | > 100 µM (inactive) | > 100 µM (inactive) | > 100 µM (inactive) | > 100 µM (inactive) | > 100 µM (inactive) | > 100 µM (inactive) | > 100 µM (inactive) |  | > 100 µM (inactive) |  |
| C[C@@H](NS(=O)(=O)c1ccc(NC(=O)c2ccccc2)cc1)C(=O)O | > 100 µM (inactive) | > 100 µM (inactive) | > 100 µM (inactive) | > 100 µM (inactive) | > 100 µM (inactive) | > 100 µM (inactive) | > 100 µM (inactive) | > 100 µM (inactive) | > 100 µM (inactive) | > 100 µM (inactive) | > 100 µM (inactive) |  | > 100 µM (inactive) | > 100 µM (inactive) | > 100 µM (inactive) | > 100 µM (inactive) | > 100 µM (inactive) | > 100 µM (inactive) | > 100 µM (inactive) |
| CC(=O)C1CCN(c2ccccc2)C1 (stereo not given) | > 100 µM (inactive) | > 100 µM (inactive) | > 100 µM (inactive) | > 100 µM (inactive) | > 100 µM (inactive) | > 100 µM (inactive) | > 100 µM (inactive) | > 100 µM (inactive) | > 100 µM (inactive) | > 100 µM (inactive) | > 100 µM (inactive) | > 100 µM (inactive) | > 100 µM (inactive) | > 100 µM (inactive) | > 100 µM (inactive) | > 100 µM (inactive) |  | > 100 µM (inactive) | > 100 µM (inactive) |
| CCN(CC)CC(=O)NC1c2ccccc2Oc2c(C)cccc21 (stereo not given) |  | 62.7 µM (inactive) | > 100 µM (inactive) | 38.7 µM (inactive) | > 100 µM (inactive) |  | > 100 µM (inactive) | 53.1 µM (inactive) | 69.5 µM (inactive) | > 100 µM (inactive) | > 100 µM (inactive) | > 100 µM (inactive) | > 100 µM (inactive) | > 100 µM (inactive) |  | > 100 µM (inactive) |  | > 100 µM (inactive) |  |
| O=S(=O)(/C=C/c1ccc(Cl)cc1Cl)Cc1ccccc1CS(=O)(=O)/C=C/c1ccc(Cl)cc1Cl | > 100 µM (inactive) | 88.7 µM (inactive) | > 100 µM (inactive) | 65.2 µM (inactive) | 7.5 µM (inactive) | 89.3 µM (inactive) | 49.4 µM (inactive) | 61.1 µM (inactive) |  | 11.9 µM (inactive) | 9.27 µM (inactive) | > 100 µM (inactive) | > 100 µM (inactive) | > 100 µM (inactive) | > 100 µM (inactive) | > 100 µM (inactive) |  | > 100 µM (inactive) | > 100 µM (inactive) |
| N#CC12Cc3ccc4c(c3-c3cccc(c31)CCN2C(=O)c1ccccc1)OCO4 (stereo not given) | > 10 µM (inactive) | > 100 µM (inactive) | > 100 µM (inactive) | > 100 µM (inactive) | > 100 µM (inactive) | > 100 µM (inactive) | > 100 µM (inactive) | > 100 µM (inactive) | > 100 µM (inactive) |  | > 100 µM (inactive) | > 100 µM (inactive) | > 100 µM (inactive) | 71.6 µM (inactive) | > 100 µM (inactive) | > 100 µM (inactive) | 64 µM (inactive) | > 100 µM (inactive) |  |
| Oc1cc(-c2ccccn2)nc2ccc(Cl)cc12 | 7.35 µM (inactive) | 53.7 µM (inactive) | > 100 µM (inactive) |  | 44.2 µM (inactive) |  | 33 µM (inactive) | 12.8 µM (inactive) |  | 47.1 µM (inactive) | 36.5 µM (inactive) |  | 19.8 µM (inactive) | 72.9 µM (inactive) |  | 64.1 µM (inactive) | 21.7 µM (inactive) | 31.8 µM (inactive) |  |
| COC(=O)C12OCC34C(CC5C(C)C6=CC(=O)OC6=CC5(C)C3C(O)C1O)OC(=O)C(O)C24 (stereo not given) | 0.533 µM (active) | 0.153 µM (active) | 2.56 µM (inactive) | 0.493 µM (active) | 0.935 µM (active) | 1.53 µM (inactive) | 0.217 µM (active) | 0.205 µM (active) | 0.0794 µM (active) | 1.25 µM (inactive) |  | 0.293 µM (active) | 0.497 µM (active) | 0.594 µM (active) | 0.655 µM (active) | 0.23 µM (active) | 0.159 µM (active) | 0.103 µM (active) | 0.446 µM (active) |
| Cc1ccc(S(=O)(=O)N/N=C/c2oc(-c3ccccc3Cl)c(-c3ccccc3Cl)c2[N+](=O)[O-])cc1 | 6.07 µM (inactive) | 11.5 µM (inactive) | 17.5 µM (inactive) | 13.8 µM (inactive) | 22.3 µM (inactive) | > 100 µM (inactive) | 31.2 µM (inactive) | 12.9 µM (inactive) | 19.5 µM (inactive) | 30 µM (inactive) | 7.24 µM (inactive) |  | 21 µM (inactive) | 19.5 µM (inactive) | > 100 µM (inactive) | 24.9 µM (inactive) | 24 µM (inactive) | 22.4 µM (inactive) | 25 µM (inactive) |
| O=C1C2C(C(=O)N1c1ccccc1)C1(c3ccccc3)OC2(c2ccccc2)c2ccccc21 (stereo not given) | 30.6 µM (inactive) | > 100 µM (inactive) | 4.14 µM (inactive) | > 100 µM (inactive) | > 100 µM (inactive) | > 100 µM (inactive) | > 100 µM (inactive) | > 100 µM (inactive) | 2.78 µM (inactive) | > 100 µM (inactive) | > 100 µM (inactive) |  | > 100 µM (inactive) | > 100 µM (inactive) | > 100 µM (inactive) | > 100 µM (inactive) | > 100 µM (inactive) | > 100 µM (inactive) | > 100 µM (inactive) |
| N#CC(C(=O)CCC(=O)Nc1ccc(Cl)cc1)c1ccc(Cl)cc1 (stereo not given) | > 100 µM (inactive) | > 100 µM (inactive) | > 100 µM (inactive) |  | > 100 µM (inactive) | > 100 µM (inactive) | > 100 µM (inactive) | 18.9 µM (inactive) | > 100 µM (inactive) | > 100 µM (inactive) | > 100 µM (inactive) | > 100 µM (inactive) | > 100 µM (inactive) | > 100 µM (inactive) | > 100 µM (inactive) | 89.5 µM (inactive) | > 100 µM (inactive) | > 100 µM (inactive) | > 100 µM (inactive) |
| OCC(O)C(OC1OC(CO)C(O)C(O)C1O)c1nn(-c2ccc(Cl)cc2)c2nc3cc(Cl)c(Cl)cc3nc12 (stereo not given) | > 100 µM (inactive) | > 100 µM (inactive) | > 100 µM (inactive) | > 100 µM (inactive) | > 100 µM (inactive) | > 100 µM (inactive) | > 100 µM (inactive) | > 100 µM (inactive) |  | > 100 µM (inactive) | > 100 µM (inactive) |  |  | > 100 µM (inactive) | > 100 µM (inactive) |  | > 100 µM (inactive) | > 100 µM (inactive) |  |
| CCOC(=O)C12CCCC1(O)N(NC(=O)c1cccc(Cl)c1)C(C)=C2C(=O)OC (stereo not given) | 40.5 µM (inactive) | 55.7 µM (inactive) | > 100 µM (inactive) | 46.5 µM (inactive) | > 100 µM (inactive) | 72.4 µM (inactive) | > 100 µM (inactive) | 96.6 µM (inactive) | > 100 µM (inactive) | > 100 µM (inactive) |  | > 100 µM (inactive) | > 100 µM (inactive) | > 100 µM (inactive) | > 100 µM (inactive) | > 100 µM (inactive) | > 100 µM (inactive) | > 100 µM (inactive) | > 100 µM (inactive) |
